The text below walks through data of PubChem BioAssay (NCI).

Where “and” joins values, the source holds several entries; their conditions need not be identical. Equal values may be shown once.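 Growth conditions: 96-well plates. Treatment: test compound, 48 hours, 5 concentrations. Analysis: linear interpolation between bracketing concentrations; unreached endpoints set to highest concentration. GI50 marks 50% less growth. Definition used: TGI = concentration required for complete inhibition of growth.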

Among the test systems are MCF7 breast; K-562 leukemia; HCT-15 colon; SK-MEL-28 melanoma; U251 CNS; NCI-H23 lung; SN12C renal; HS 578T breast; SNB-19 CNS; UO-31 renal.
Holding throughout (assay): NCI tumour cell line growth inhibition, 48 h

For `CC(=O)N(C)c1cc(NCc2ccccc2)ccc1OCc1ccccc1`, the TGI worked out at 35.2 µM with MCF7 breast; 63.5 µM in the experiment with K-562 leukemia; 39.2 µM with HCT-15 colon; 35.4 µM with SK-MEL-28 melanoma; 32.9 µM in the experiment with U251 CNS; 57.1 µM in the experiment on NCI-H23 lung. The TGI amounted to 33.1 µM in the experiment with SN12C renal, 91 µM in the experiment on HS 578T breast, 35.8 µM with SNB-19 CNS and 28 µM with UO-31 renal.

Take `CC(C)n1nc(C#Cc2cccc(O)c2)c2c(N)ncnc21`: the GI50 with MCF7 breast is 1.62 µM and 1.51 µM; in the experiment with K-562 leukemia, 0.0636 µM and 0.0283 µM; in the experiment with HCT-15 colon it was 1.35 µM and 0.906 µM; with SK-MEL-28 melanoma, 0.657 µM and 0.304 µM; with U251 CNS, 2.83 µM and 2.95 µM; in the experiment on NCI-H23 lung, 1.23 µM and 0.992 µM. Also, the GI50 in the experiment on SN12C renal was 0.894 µM and 0.532 µM; with HS 578T breast it was 0.583 µM and 0.17 µM; in the experiment with SNB-19 CNS, 3.02 µM and 2.16 µM; in the experiment on UO-31 renal, 0.391 µM and 0.416 µM. Besides, the TGI in the experiment on MCF7 breast is 50 µM and 11.9 µM; in the experiment on K-562 leukemia, 50 µM and > 100 µM; in the experiment with HCT-15 colon, 21.6 µM and 10.1 µM; in the experiment on SK-MEL-28 melanoma it was 2.73 µM and 2.36 µM; with U251 CNS it was 50 µM and 12.8 µM; in the experiment on NCI-H23 lung, 6.75 µM and 5.4 µM. The TGI is 5.09 µM and 4.76 µM with SN12C renal; 1.88 µM and 0.632 µM with HS 578T breast; 21.4 µM and 14.4 µM in the experiment with SNB-19 CNS; 1.92 µM and 2.83 µM in the experiment with UO-31 renal.

Take `O=C(O)c1ccc(NCc2nc3ccccc3[nH]2)cc1`: the GI50 is 99.9 µM with MCF7 breast; more than 100 µM with K-562 leukemia; more than 100 µM with HCT-15 colon; more than 100 µM in the experiment on SK-MEL-28 melanoma; more than 100 µM in the experiment on U251 CNS; more than 100 µM in the experiment on NCI-H23 lung. Moreover, the GI50 in the experiment on SN12C renal, in the experiment with HS 578T breast, with SNB-19 CNS and in the experiment on UO-31 renal was more than 100 µM in each case. Further, the TGI in the experiment on MCF7 breast, in the experiment with K-562 leukemia, in the experiment with HCT-15 colon, with SK-MEL-28 melanoma, with U251 CNS and in the experiment with NCI-H23 lung was more than 100 µM each time. Besides, the TGI with SN12C renal, in the experiment with HS 578T breast, in the experiment on SNB-19 CNS and in the experiment with UO-31 renal was more than 100 µM each time.

Take `O=C(/C=C/c1ccco1)Nc1ncc(Cc2cccc(C(F)(F)F)c2)s1`: the GI50 was 0.0367 µM with MCF7 breast; 0.0361 µM in the experiment on K-562 leukemia; 0.0465 µM with HCT-15 colon; 1.1 µM in the experiment with SK-MEL-28 melanoma; 0.0532 µM in the experiment on U251 CNS; 0.208 µM with NCI-H23 lung. Also, the GI50 is 0.197 µM in the experiment with SN12C renal, 0.0466 µM in the experiment with HS 578T breast, 0.1 µM in the experiment with SNB-19 CNS and 0.166 µM in the experiment on UO-31 renal. In addition, the TGI with MCF7 breast was more than 56.2 µM; with K-562 leukemia, more than 33.8 µM; in the experiment with HCT-15 colon, more than 34.3 µM; in the experiment on SK-MEL-28 melanoma, more than 50.2 µM; in the experiment with U251 CNS, 2.11 µM; in the experiment with NCI-H23 lung, more than 39.7 µM. In addition, the TGI with SN12C renal was more than 50.5 µM; in the experiment on HS 578T breast, 3.89 µM; in the experiment with SNB-19 CNS, more than 44.5 µM; in the experiment with UO-31 renal it was 5.13 µM.

`CCC1=C[C@@H]2CN(C1)Cc1c([nH]c3ccccc13)[C@@](C(=O)OC)(c1cc3c(cc1OC)N(C)[C@H]1[C@@](O)(C(=O)OC)[C@H](OC(C)=O)[C@]4(CC)C=CCN5CC[C@]31[C@@H]54)C2`: the GI50 with MCF7 breast is less than 0.01 µM; in the experiment with K-562 leukemia it was less than 0.01 µM; in the experiment on HCT-15 colon it was 0.141 µM; with SK-MEL-28 melanoma it was less than 0.01 µM; in the experiment with U251 CNS, less than 0.01 µM; in the experiment with NCI-H23 lung, less than 0.0187 µM. Moreover, the GI50 in the experiment with SN12C renal is less than 0.0214 µM; in the experiment on HS 578T breast, less than 0.01 µM; in the experiment with SNB-19 CNS, less than 0.01 µM; in the experiment on UO-31 renal, 1.02 µM. Besides, the TGI with MCF7 breast worked out at 11.5 µM; in the experiment with K-562 leukemia, 18.9 µM; in the experiment with HCT-15 colon, 6.8 µM; in the experiment with SK-MEL-28 melanoma, 18.2 µM; with U251 CNS, 8.42 µM; with NCI-H23 lung it was 41.4 µM. Besides, the TGI in the experiment with SN12C renal worked out at 43.7 µM; in the experiment on HS 578T breast, 9.59 µM; with SNB-19 CNS it was 18.9 µM; in the experiment with UO-31 renal, 18.6 µM.

On to `CCOC(=O)Nc1ccc2nc(N3CCCCCC3)sc2c1`, for which the GI50 in the experiment with MCF7 breast is 0.857 µM; in the experiment on K-562 leukemia, 0.501 µM; in the experiment with HCT-15 colon, 0.84 µM; with SK-MEL-28 melanoma, 7.14 µM; in the experiment on U251 CNS it was 1.09 µM; with NCI-H23 lung it was 7.95 µM. Moreover, the GI50 in the experiment with SN12C renal is 5.08 µM; in the experiment with HS 578T breast it was 4.53 µM; in the experiment on SNB-19 CNS, 2.84 µM; with UO-31 renal it was 6.17 µM. The TGI in the experiment on MCF7 breast is more than 80.6 µM; with K-562 leukemia, more than 72.6 µM; in the experiment with HCT-15 colon it was more than 46.2 µM; in the experiment on SK-MEL-28 melanoma it was more than 91.7 µM; in the experiment with U251 CNS, more than 100 µM; with NCI-H23 lung, more than 100 µM. Moreover, the TGI in the experiment on SN12C renal is more than 100 µM; with HS 578T breast, more than 100 µM; in the experiment on SNB-19 CNS, more than 100 µM; in the experiment with UO-31 renal, 75.1 µM.

As for `CS(=O)(=O)c1ccc2c(c1)C(=O)c1c-2n(CCCBr)c(=O)c2cc([N+](=O)[O-])ccc12`, the GI50 in the experiment with MCF7 breast was 0.992 µM; in the experiment with K-562 leukemia it was 5.15 µM; in the experiment on HCT-15 colon, 48.9 µM; with SK-MEL-28 melanoma, more than 100 µM; in the experiment with U251 CNS it was 8.76 µM; in the experiment on NCI-H23 lung it was 7.87 µM. In addition, the GI50 is 6.88 µM in the experiment with SN12C renal, 4.98 µM with HS 578T breast, 6.03 µM in the experiment on SNB-19 CNS and 3.12 µM with UO-31 renal. In addition, the TGI in the experiment on MCF7 breast, in the experiment with K-562 leukemia, in the experiment with HCT-15 colon, in the experiment on SK-MEL-28 melanoma, in the experiment with U251 CNS and with NCI-H23 lung was more than 100 µM in each case. For the same compound, the TGI was more than 100 µM in the experiment on SN12C renal, 44.1 µM in the experiment with HS 578T breast, more than 100 µM in the experiment on SNB-19 CNS and more than 100 µM in the experiment on UO-31 renal.
